Results from ChEMBL document CHEMBL3632564, “Synthesis of 17-membered azalides from a 16-membered macrolide utilizing amide-selective silane reduction” (2015).
≈ marks a conversion by molar mass, not a printed value.

Columns and labels:
Type in all cases: functional
Streptococcus pneumoniae [1] = test: Antibacterial activity against penicillin-intermediate Gram-positive Streptococcus pneumoniae TY-5745 after 18 hrs by agar dilution method; settings: TY-5745, 18 h
Streptococcus pneumoniae [2] = test: Antibacterial activity against penicillin-resistant Gram-positive Streptococcus pneumoniae JPS317 after 18 hrs by agar dilution method; settings: JPS317, 18 h
Streptococcus pneumoniae [3] = test: Antibacterial activity against penicillin-susceptible Gram-positive Streptococcus pneumoniae S-223 after 18 hrs by agar dilution method; settings: S-223, 18 h
Haemophilus influenzae = test: Antibacterial activity against beta-lactamase-negative ampicillin-resistant Gram-negative Haemophilus influenzae ME587 after 18 hrs by agar dilution method; settings: ME587, 18 h

`CC[C@H]1OC(=O)CC[C@H](C)[C@@H](O[C@@H]2O[C@H](C)C[C@H](N(C)C)[C@H]2O)[C@@H](CC=O)C[C@@H](C)CN(C)CC/C(C)=C/[C@@H]1CO` was tested, and the MIC (Streptococcus pneumoniae [1]) was 16 µg/mL (≈ 27.5 µM), the MIC (Streptococcus pneumoniae [2]) was 8 µg/mL (≈ 13.7 µM) and the MIC (Streptococcus pneumoniae [3]) was 8 µg/mL (≈ 13.7 µM). For the same compound, the MIC (Haemophilus influenzae) was 4 µg/mL (≈ 6.86 µM).
Work on `CC[C@H]1OC(=O)CC[C@H](C)[C@@H](O[C@@H]2O[C@H](C)C[C@H](N(C)C)[C@H]2O)[C@@H](CC=O)C[C@@H](C)N(C)CCC/C(C)=C/[C@@H]1CO` yielded an MIC (Streptococcus pneumoniae [1]) of 32 µg/mL (≈ 54.9 µM), an MIC (Streptococcus pneumoniae [2]) of 8 µg/mL (≈ 13.7 µM) and an MIC (Streptococcus pneumoniae [3]) of 8 µg/mL (≈ 13.7 µM). For the same compound, the MIC (Haemophilus influenzae) was 4 µg/mL (≈ 6.86 µM).
Work on `CC[C@H]1OC(=O)CC[C@H](C)[C@@H](O[C@@H]2O[C@H](C)C[C@H](N(C)C)[C@H]2O)[C@@H](CC=O)C[C@@H](C)N(C)C/C=C/C(C)=C/[C@@H]1CO` yielded an MIC (Streptococcus pneumoniae [1]) of 32 µg/mL (≈ 55.1 µM), an MIC (Streptococcus pneumoniae [2]) of 32 µg/mL (≈ 55.1 µM) and an MIC (Streptococcus pneumoniae [3]) of 16 µg/mL (≈ 27.5 µM). For the same compound, the MIC (Haemophilus influenzae) was 4 µg/mL (≈ 6.89 µM).
For `CC[C@H]1OC(=O)CC[C@H](C)[C@@H](O[C@@H]2O[C@H](C)C[C@H](N(C)C)[C@H]2O)[C@@H](CC=O)C[C@@H](C)C(=O)/C=C/C(C)=C/[C@@H]1CO`, the MIC (Streptococcus pneumoniae [1]) was 1 µg/mL (≈ 1.77 µM), the MIC (Streptococcus pneumoniae [2]) was 0.5 µg/mL (≈ 0.884 µM) and the MIC (Streptococcus pneumoniae [3]) was 0.25 µg/mL (≈ 0.442 µM). For the same compound, the MIC (Haemophilus influenzae) was 1 µg/mL (≈ 1.77 µM).
`CC[C@H]1OC(=O)[C@H](C)[C@@H](O[C@H]2C[C@@](C)(OC)[C@@H](O)[C@H](C)O2)[C@H](C)[C@@H](O[C@@H]2O[C@H](C)C[C@H](N(C)C)[C@H]2O)[C@](C)(O)C[C@@H](C)CN(C)[C@H](C)[C@@H](O)[C@]1(C)O` [AZITHROMYCIN] gave an MIC (Streptococcus pneumoniae [1]) of 1 µg/mL (≈ 1.34 µM), an MIC (Streptococcus pneumoniae [2]) of 8 µg/mL (≈ 10.7 µM) and an MIC (Streptococcus pneumoniae [3]) of 0.25 µg/mL (≈ 0.334 µM). It also gave an MIC (Haemophilus influenzae) of 1 µg/mL (≈ 1.34 µM).
